Experiments:
ALK = ALK (Homo sapiens, UniProt Q9UM73); test: Assay of activity on ALK kinase; format: biochemical; conditions: kinase inhibition
Experimental: (§1) Assay of activity on ALK kinase
(§2) (1) A compound stock solution was prepared;
(§3) (2) The compound stock solution was diluted 3× to obtain a compound dilution;
(§4) (5) 5 μl of the 2× kinase working solution was added to the reaction plate, centrifuged at 1,000 rpm for 1 min, and incubated at 25° C. for 15 min;
(§5) (7) 5 μl of the TK-substrate-biotin and ATP (the mixture prepared in step (6)) was added to initiate the reaction;
(§6) (8) The mixture was centrifuged at 1,000 g for 30 s; the plate was sealed, and incubated at 25° C. for 60 min;
(§7) (11) The mixture was centrifuged at 1,000 g for 1 min, and incubated at 25° C. for 60 min;
(§8) Formula of inhibition rate (%): […]
(§9) The nonlinear regression curve (dose response-variable slope) between the value of inhibition rate (%) and the logarithm of compound concentration was fitted with graphpad prism 8.0, the effect dose curve of compound was drawn, and the IC50 value was calculated.
(§10) Y=Bottom+(Top−Bottom)/(1+10^((LogIC50−X)*Hill Slope))
(§11) X-axis: logarithm of compound concentration; Y axis: inhibition rate ([…])

ALK^G1202R = ALK^G1202R (Homo sapiens, UniProt Q9UM73, G1202R); test: Assay of activity on ALK kinase; format: biochemical; conditions: kinase inhibition
Experimental: as §1, §2, §3, §4, §5, §6, §7, §8, §9, §10, §11

[1] = biological target: Ba/F3(EGFR^Del19/T790M/C797S) cells (Homo sapiens, UniProt P00533, DEL746-750/T790M/C797S, cells depend on it); test: Assay of activity on Ba/F3 cells (CTG, 72 h); format: cell-based; conditions: read-out: IC50 (nM) Ba/F3 (EGFR^Del19/T790M/C797S)
How it was run: (§12)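 Ba/F3 cells dependent on each EGFR triple mutant were exposed to 3-fold compound dilutions for 72 h at 37° C, 5% CO2, with CellTiter-Glo luminescence as the read-out.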

[2] = biological target: Ba/F3(EGFR^L858R/T790M/C797S) cells (Homo sapiens, UniProt P00533, T790M/C797S/L858R, cells depend on it); test: Assay of activity on Ba/F3 cells (CTG, 72 h); format: cell-based; conditions: read-out: IC50 (nM) Ba/F3 (EGFR^L858R/T790M/C797S)
How it was run: as §12

Ba/F3(EML4-ALK) cells = biological target: T1, Ba/F3(EML4-ALK) cells (Homo sapiens, UniProt Q9UM73); test: Assay of activity on Ba/F3(EML4-ALK) cells (CTG, 72 h); format: cell-based; conditions: read-out: IC50 (nM) Ba/F3(EML4-ALK)
T1 construct: fused on or other part: Q9HC35 (Echinoderm microtubule-associated protein-like 4)
How it was run: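 Ba/F3(EML4-ALK) cells, 700 per well, were exposed to 3-fold serial compound dilutions for 72 h at 37° C, 5% CO2, and viability was then read by CTG luminescence.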

EGFR^L858R/T790M/C797S [3] = biological target: T2, EGFR^L858R/T790M/C797S (Homo sapiens, UniProt P00533, C797S/L858R/T790M); test: EGFR inhibitory activity assay (TK-substrate-biotin/ATP, 665/615 ratio); format: biochemical; conditions: kinase inhibition
How it was run: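 HTRF kinase assay: enzyme preincubated with compound 10 min at room temperature, then reacted with biotinylated TK substrate and ATP for 40 min at room temperature.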

EGFR^Del19/T790M/C797S = EGFR^Del19/T790M/C797S (Homo sapiens, UniProt P00533, C797S/DEL746-750/T790M); test: as above; format: biochemical; conditions: kinase inhibition
Experimental: EGFR Inhibitory Activity Assay
(2) The plate was sealed, and centrifuged at 1,000 g for 1 min;
(4) 5 μl of the 2×EGFR protein working solution was added to the 384-well plate from step (2), centrifuged at 1,000 g for 30 s, and allowed to stand at room temperature (mixed thoroughly) for 10 min;
(6) 5 µL of the TK-substrate-biotin and ATP (the mixture prepared in step (5)) was added to the 384-well plate from step (4) to initiate the reaction;
(7) The mixture was centrifuged at 1,000 g for 30 s; the plate was sealed, and allowed to stand (and reacted) at room temperature for 40 min;
(10) The mixture was centrifuged at 1,000 g for 30 s, and allowed to stand (reacted) at room temperature for 1 h;
as §8, §9

EGFR^L858R/T790M/C797S [4] = biological target: T2, EGFR^L858R/T790M/C797S; test: Assay of activity of compounds to induce EGFR protein degradation (Alpha counts); format: cell-based; parameters: expressed in transfected cells; host or cells: Ba/F3; conditions: 24 h
Source text: Assay of activity of compounds to induce EGFR^58R/IT790M/C797S and EGFR^Dell9/T790M/C797S protein degradation
In order to further explain the reason why the compounds of the present disclosure have inhibitory activity on Ba/F3(EGFR^58R/IT790M/C797S) and Ba/F3(EGFR^Dell9/T790M/C797S) cells, representative compounds C176 and C213 were selected to study the mechanism of action of the compounds, and observe their effects on EGFR^58R/IT790M/C797S and EGFR^Dell9/T790M/C797S protein levels.
Ba/F3(EGFR^58R/IT790M/C797S) and Ba/F3(EGFR^Dell9/T790M/C797S) cells were cultured according to the culture conditions recommended by ATCC, and analyzed by index.
Complete medium: 1640 medium, 10% FBS, 1× glutamine, 1× penicillin-streptomycin.
Culture conditions: incubated at 37° C., 95% air, 5% CO2 incubator.
(2) Compound stock solution: 10 mM stock solution in DMSO, stored at −20° C.
(3) Preparation of cell suspension:
The cells in the cell culture bottle were collected, and the cells with viability of >90% can be used in the assay. Cells were seeded in a 96-well plate with 40 μL cells, 1*10^5 cells/well.
Compound was diluted 3× with DMSO, starting at 1.0 mM (for EGFR^58R/IT790M/C797S assay) and 5 mM (for EGFR^Dell9/T790M/C797S assay), respectively, into 10 concentrations to prepare working solutions.
(5) Compound was pipetted into the 96-well plate to treat cells in a 37° C., 95% air, 5% CO2 incubator for 24 h.
1) 1 μg/mL of EGF activated cells were treated for 10 min;
2) After the compound treatment, lysis buffer was added to lyse cells; 10 μL of cell lysate was transferred to a 384-well plate; in addition, control lysate and negative control plus 5 μL of acceptor mix were added to the 384-well plate, and shaken on a shaker for 1-2 min;
3) 5 μL of donor mix was added to each well; the 384-well plate was sealed, shaken on a shaker for 1-2 min, left in the dark at room temperature overnight, and read with an enzyme labeling instrument.
Alpha counts were fitted by logarithmic treatment of compound concentration with Graphpad Prism 8.0.
Y=Bottom+(Top−Bottom)/(1+10^((LogIC50−X)*HillSlope))
X: logarithm of compound concentration; Y: Alpha Counts.

ALK, sequence (Q9UM73 19-1620): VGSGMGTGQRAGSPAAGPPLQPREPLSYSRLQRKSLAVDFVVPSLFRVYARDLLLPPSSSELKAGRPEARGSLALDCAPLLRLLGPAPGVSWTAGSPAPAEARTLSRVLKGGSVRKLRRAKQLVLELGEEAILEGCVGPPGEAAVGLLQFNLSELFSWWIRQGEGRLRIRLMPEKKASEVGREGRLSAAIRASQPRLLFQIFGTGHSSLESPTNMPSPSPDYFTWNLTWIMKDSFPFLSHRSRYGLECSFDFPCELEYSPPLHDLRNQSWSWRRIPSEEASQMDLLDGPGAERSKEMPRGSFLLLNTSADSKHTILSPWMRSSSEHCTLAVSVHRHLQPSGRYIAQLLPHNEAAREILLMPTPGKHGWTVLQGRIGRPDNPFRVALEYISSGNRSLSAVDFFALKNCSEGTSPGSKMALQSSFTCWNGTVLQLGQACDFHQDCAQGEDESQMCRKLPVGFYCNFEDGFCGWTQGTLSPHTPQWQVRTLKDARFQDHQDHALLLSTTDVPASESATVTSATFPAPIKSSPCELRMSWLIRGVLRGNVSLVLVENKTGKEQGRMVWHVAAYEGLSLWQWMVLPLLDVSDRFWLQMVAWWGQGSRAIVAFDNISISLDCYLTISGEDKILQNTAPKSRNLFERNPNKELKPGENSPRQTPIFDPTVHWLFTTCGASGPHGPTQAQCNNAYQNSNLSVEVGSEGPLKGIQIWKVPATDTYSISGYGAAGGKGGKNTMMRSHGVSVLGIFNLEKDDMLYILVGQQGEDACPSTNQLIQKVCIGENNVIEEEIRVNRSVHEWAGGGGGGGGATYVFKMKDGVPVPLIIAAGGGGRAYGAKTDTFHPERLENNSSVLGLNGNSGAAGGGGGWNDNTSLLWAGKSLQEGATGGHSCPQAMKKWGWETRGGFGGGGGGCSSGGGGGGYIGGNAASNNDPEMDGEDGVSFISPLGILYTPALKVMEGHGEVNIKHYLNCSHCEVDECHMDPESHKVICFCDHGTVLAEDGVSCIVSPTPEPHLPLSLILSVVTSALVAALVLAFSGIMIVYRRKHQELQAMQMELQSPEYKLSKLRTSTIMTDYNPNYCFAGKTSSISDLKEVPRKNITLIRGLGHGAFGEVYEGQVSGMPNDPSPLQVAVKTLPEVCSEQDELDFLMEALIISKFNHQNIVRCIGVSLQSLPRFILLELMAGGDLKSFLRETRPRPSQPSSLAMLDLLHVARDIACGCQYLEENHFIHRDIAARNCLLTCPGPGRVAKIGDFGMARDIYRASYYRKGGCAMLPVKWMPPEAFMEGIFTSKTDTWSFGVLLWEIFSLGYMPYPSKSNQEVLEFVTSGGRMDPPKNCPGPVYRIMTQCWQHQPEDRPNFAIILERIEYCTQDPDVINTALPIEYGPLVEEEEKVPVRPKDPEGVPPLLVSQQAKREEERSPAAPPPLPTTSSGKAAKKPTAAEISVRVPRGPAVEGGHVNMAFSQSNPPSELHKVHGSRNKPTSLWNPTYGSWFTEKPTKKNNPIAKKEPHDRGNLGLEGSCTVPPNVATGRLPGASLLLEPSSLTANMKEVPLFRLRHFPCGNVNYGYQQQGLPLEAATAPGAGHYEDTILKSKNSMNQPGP
ALK^G1202R, sequence (Q9UM73 19-1620 G1202R): as the sequence (Q9UM73 19-1620) above, with G1184R counted along it
T1 sequence (Q9UM73 whole entry, change not shown, the tested form may be a part): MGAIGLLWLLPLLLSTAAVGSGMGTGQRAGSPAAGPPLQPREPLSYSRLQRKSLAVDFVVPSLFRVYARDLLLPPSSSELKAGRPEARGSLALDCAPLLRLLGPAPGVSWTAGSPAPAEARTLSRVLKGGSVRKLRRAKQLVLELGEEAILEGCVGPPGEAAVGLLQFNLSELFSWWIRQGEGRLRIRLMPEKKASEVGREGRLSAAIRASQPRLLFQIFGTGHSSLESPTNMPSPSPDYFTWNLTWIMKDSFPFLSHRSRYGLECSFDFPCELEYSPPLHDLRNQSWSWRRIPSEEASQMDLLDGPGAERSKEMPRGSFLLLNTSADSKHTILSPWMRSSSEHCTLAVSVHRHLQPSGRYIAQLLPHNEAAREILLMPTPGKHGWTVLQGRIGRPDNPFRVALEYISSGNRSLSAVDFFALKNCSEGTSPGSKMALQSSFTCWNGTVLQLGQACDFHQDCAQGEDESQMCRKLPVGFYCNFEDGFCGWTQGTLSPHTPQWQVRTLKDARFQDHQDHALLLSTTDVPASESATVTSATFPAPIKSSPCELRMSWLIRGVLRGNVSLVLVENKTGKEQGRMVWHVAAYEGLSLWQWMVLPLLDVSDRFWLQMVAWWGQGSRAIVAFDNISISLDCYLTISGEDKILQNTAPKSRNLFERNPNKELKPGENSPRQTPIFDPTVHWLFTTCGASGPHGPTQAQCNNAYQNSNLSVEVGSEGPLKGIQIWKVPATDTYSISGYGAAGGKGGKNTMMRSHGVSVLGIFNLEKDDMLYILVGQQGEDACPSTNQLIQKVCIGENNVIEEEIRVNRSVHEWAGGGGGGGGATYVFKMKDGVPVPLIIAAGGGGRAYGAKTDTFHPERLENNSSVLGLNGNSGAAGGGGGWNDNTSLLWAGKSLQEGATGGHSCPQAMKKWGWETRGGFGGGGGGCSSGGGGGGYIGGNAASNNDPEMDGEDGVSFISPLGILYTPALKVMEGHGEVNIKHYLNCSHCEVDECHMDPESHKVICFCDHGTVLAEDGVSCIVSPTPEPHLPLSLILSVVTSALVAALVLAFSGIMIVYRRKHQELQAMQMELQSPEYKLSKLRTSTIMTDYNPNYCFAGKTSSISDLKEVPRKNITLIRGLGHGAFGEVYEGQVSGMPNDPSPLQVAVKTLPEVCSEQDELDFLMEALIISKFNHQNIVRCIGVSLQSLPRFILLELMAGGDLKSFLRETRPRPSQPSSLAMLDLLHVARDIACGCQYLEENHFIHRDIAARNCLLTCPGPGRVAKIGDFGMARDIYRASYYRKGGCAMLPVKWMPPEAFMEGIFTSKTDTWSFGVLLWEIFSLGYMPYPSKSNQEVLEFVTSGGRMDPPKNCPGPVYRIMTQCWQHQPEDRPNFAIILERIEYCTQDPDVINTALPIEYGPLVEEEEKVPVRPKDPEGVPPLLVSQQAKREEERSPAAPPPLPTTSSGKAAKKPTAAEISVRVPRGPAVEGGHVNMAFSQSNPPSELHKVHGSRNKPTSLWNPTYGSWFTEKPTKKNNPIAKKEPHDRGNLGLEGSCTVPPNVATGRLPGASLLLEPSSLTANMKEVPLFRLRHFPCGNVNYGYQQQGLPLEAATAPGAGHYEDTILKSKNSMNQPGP

Compound	IC50 (ALK)	IC50 (ALK^G1202R)	GI50 [1]	GI50 [2]	GI50 (Ba/F3(EML4-ALK) cells)	IC50 (EGFR^L858R/T790M/C797S [3])	IC50 (EGFR^Del19/T790M/C797S)	DC50 (EGFR^L858R/T790M/C797S [4]; Ba/F3(EGFR^L858R/T790M/C797S) cells, 0.01 nM to 1000 nM, FIG. 1, read-out: DC50 of EGFR^L858R/T790M/C797S protein level)	effect on EGFR^L858R/T790M/C797S protein level (in words) (EGFR^L858R/T790M/C797S [4]; Ba/F3 cells, dose-dependent)
COc1cc(N2CCC(N3CCN(CCCCCCCOc4cccc5c4C(=O)N(C4CCC(=O)NC4=O)C5=O)CC3)CC2)ccc1Nc1ncc(Cl)c(Nc2ccccc2P(C)(C)=O)n1 (stereo not shown) [Compound A10, 4-((7-(4-(1-(4-((5-chloro-4-((2-(dimethylphosphoryl)phenyl)amino)pyrimidin-2-yl)amino)-3-methoxyphenyl)piperidin-4-yl)piperazin-1-yl)heptyl)oxy)-2-(2,6-dioxopiperidin-3-yl)isoindoline-1,3-dione]	1 to 100 nM	101 to 200 nM	1 to 100 nM	1 to 100 nM	1 to 100 nM	1 to 100 nM	1 to 100 nM	–	–
COc1cc(N2CCC(N3CCN(CCCCCCCCCOc4cccc5c4C(=O)N(C4CCC(=O)NC4=O)C5=O)CC3)CC2)ccc1Nc1ncc(Cl)c(Nc2ccccc2P(C)(C)=O)n1 (stereo not shown) [Compound A11, 4-((9-(4-(1-(4-((5-chloro-4-((2-(dimethylphosphoryl)phenyl)amino)pyrimidin-2-yl)amino)-3-methoxyphenyl)piperidin-4-yl)piperazin-1-yl)nonyl)oxy)-2-(2,6-dioxopiperidin-3-yl)isoindoline-1,3-dione]	1 to 100 nM	101 to 200 nM	1 to 100 nM	101 to 200 nM	1 to 100 nM	1 to 100 nM	1 to 100 nM	–	–
COc1cc(N2CCC(N3CCN(CCCCC#Cc4cccc5c4CN(C4CCC(=O)NC4=O)C5=O)CC3)CC2)ccc1Nc1ncc(Cl)c(Nc2ccccc2P(C)(C)=O)n1 (stereo not shown) [Compound C116, 3-(4-(6-(4-(1-(4-((5-chloro-4-((2-(dimethylphosphoryl)phenyl)amino)pyrimidin-2-yl)amino)-3-methoxyphenyl)piperidin-4-yl)piperazin-1-yl)hex-1-yn-1-yl)-1-oxoisoindolin-2-yl)piperidine-2,6-dione]	1 to 100 nM	201 to 300 nM	1 to 100 nM	–	1 to 100 nM	1 to 100 nM	1 to 100 nM	–	–
COc1cc(N2CCC(N3CCN(CCCCCC#Cc4cc(F)cc5c4CN(C4CCC(=O)NC4=O)C5=O)CC3)CC2)ccc1Nc1ncc(Cl)c(Nc2ccccc2P(C)(C)=O)n1 (stereo not shown) [Compound C167, 3-(4-(7-(4-(1-(4-((5-chloro-4-((2-(dimethylphosphoryl)phenyl)amino)pyrimidin-2-yl)amino)-3-methoxyphenyl)piperidin-4-yl)piperazin-1-yl)hept-1-yn-1-yl)-6-fluoro-1-oxoisoindolin-2-yl)piperidine-2,6-dione]	1 to 100 nM	201 to 300 nM	–	1 to 100 nM	1 to 100 nM	1 to 100 nM	1 to 100 nM	–	–
COc1cc(N2CCC(N3CCN(CCOCC#Cc4cccc5c4CN(C4CCC(=O)NC4=O)C5=O)CC3)CC2)ccc1Nc1ncc(Cl)c(Nc2ccccc2P(C)(C)=O)n1 (stereo not shown) [Compound C176, 3-(4-(3-(2-(4-(1-(4-((5-chloro-4-((2-(dimethylphosphoryl)phenyl)amino)pyrimidin-2-yl)amino)-3-methoxyphenyl)piperidin-4-yl)piperazin-1-yl)ethoxy)prop-1-yn-1-yl)-1-oxoisoindolin-2-yl)piperidine-2,6-dione]	–	–	–	1 to 100 nM	1 to 100 nM	1 to 100 nM	–	31.4 nM	significantly reduces
COc1cc(N2CCC(N3CCN(CCCCCCC#Cc4cccc5c4CN(C4CCC(=O)NC4=O)C5=O)CC3)CC2)ccc1Nc1ncc(Cl)c(Nc2ccccc2P(C)(C)=O)n1 (stereo not shown) [Compound C177, 3-(4-(8-(4-(1-(4-((5-chloro-4-((2-(dimethylphosphoryl)phenyl)amino)pyrimidin-2-yl)amino)-3-methoxyphenyl)piperidin-4-yl)piperazin-1-yl)oct-1-yn-1-yl)-1-oxoisoindolin-2-yl)piperidine-2,6-dione]	1 to 100 nM	201 to 300 nM	1 to 100 nM	–	1 to 100 nM	1 to 100 nM	1 to 100 nM	–	–
COc1cc(N2CCC(N3CCN(CCCCCCCC#Cc4cccc5c4CN(C4CCC(=O)NC4=O)C5=O)CC3)CC2)ccc1Nc1ncc(Cl)c(Nc2ccccc2P(C)(C)=O)n1 (stereo not shown) [Compound C178, 3-(4-(9-(4-(1-(4-((5-chloro-4-((2-(dimethylphosphoryl)phenyl)amino)pyrimidin-2-yl)amino)-3-methoxyphenyl)piperidin-4-yl)piperazin-1-yl)non-1-yn-1-yl)-1-oxoisoindolin-2-yl)piperidine-2,6-dione]	1 to 100 nM	201 to 300 nM	1 to 100 nM	–	1 to 100 nM	1 to 100 nM	1 to 100 nM	–	–
COc1cc(N2CCC(N3CCN(CCCCC#Cc4ccc5c(c4)CN(C4CCC(=O)NC4=O)C5=O)CC3)CC2)ccc1Nc1ncc(Cl)c(Nc2ccccc2P(C)(C)=O)n1 (stereo not shown) [Compound C192, 3-(5-(6-(4-(1-(4-((5-chloro-4-((2-(dimethylphosphoryl)phenyl)amino)pyrimidin-2-yl)amino)-3-methoxyphenyl)piperidin-4-yl)piperazin-1-yl)hex-1-yn-1-yl)-1-oxoisoindolin-2-yl)piperidine-2,6-dione]	1 to 100 nM	201 to 300 nM	1 to 100 nM	–	1 to 100 nM	1 to 100 nM	1 to 100 nM	–	–

From US20220306659A1, “COMPOUND INHIBITING AND INDUCING DEGRADATION OF EGFR AND ALK” (BEIJING TIDE PHARMACEUTICAL CO., LTD., priority 2019, published 2022)
